Columns and labels:
Experiment in all cases: In vitro antifungal activity, microbroth dilution MIC
Assay type in all cases: cell-based
[1] = tested on: Trichophyton mentagrophytes A. 9129; settings: RPMI-1640, 35° C., no growth observed
Procedure, shortened: (§1)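 Broth microdilution adapted from NCCLS M27, in RPMI-1640 with 0.165 M MOPS, pH 7.0. Yeast or mould inoculum at 2×10^3 CFU/ml was mixed 1:1 with DMSO-derived compound solutions (200 to 0.10 μg/ml before mixing) and incubated at 35 °C for 4 to 48 h. MIC was the concentration showing no growth.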

[2] = tested on: Candida tropicalis A. 13803; settings: RPMI-1640, 35° C., 4 to 48 hours, no growth observed
Procedure, shortened: as §1

[3] = tested on: Candida albicans A. 10231; settings: RPMI-1640, 35° C., 4 to 48 hours, no growth observed
Procedure, shortened: as §1

[4] = tested on: Aspergillus niger A. 16404; settings: RPMI-1640, 35° C., no growth observed
Procedure, shortened: as §1

[5] = tested on: Cryptococcus neoformans IFM. 40092; settings: RPMI-1640, 35° C., no growth observed
Procedure, shortened: as §1

[6] = tested on: Aspergillus furnigatus B. 19119; settings: RPMI-1640, 35° C., no growth observed
Procedure, shortened: as §1

[7] = tested on: Candida parapsitosis A. 7330; settings: RPMI-1640, 35° C., 4 to 48 hours, no growth observed
Procedure, shortened: as §1

[8] = tested on: Candida pseudotropicalis K. 11658; settings: RPMI-1640, 35° C., 4 to 48 hours, no growth observed
Procedure, shortened: as §1

[9] = tested on: Torulopsis glabrata B. 16205; settings: RPMI-1640, 35° C., 4 to 48 hours, no growth observed
Procedure, shortened: as §1

[10] = tested on: Cryptococcus neoformans A. 34144; settings: RPMI-1640, 35° C., no growth observed
Procedure, shortened: as §1

[11] = tested on: Candida albicans IFO. 1385; settings: RPMI-1640, 35° C., 4 to 48 hours, no growth observed
Procedure, shortened: as §1

Candida krusei K. 11655 = settings: RPMI-1640, 35° C., 4 to 48 hours, no growth observed
Procedure, shortened: as §1

[12] = tested on: Trichophyton mentagrophytes B. 32663; settings: RPMI-1640, 35° C., no growth observed
Procedure, shortened: as §1

Candida albicans C1-2 = settings: RPMI-1640, 35° C., 4 to 48 hours, no growth observed
Procedure, shortened: as §1

[13] = tested on: Cryptococcus neoformans B. 42419; settings: RPMI-1640, 35° C., 4 to 48 hours, no growth observed
Procedure, shortened: as §1

Minimal inhibitory concentration(MIC), T. mentagrophytes A. 9129 ([1]; 4 to 48 hours) [µg/mL] | Minimal inhibitory concentration(MIC), C. tropicalis A. 13803 [2] [µg/mL] | Minimal inhibitory concentration(MIC), C. albicans A. 10231 [3] [µg/mL] | Minimal inhibitory concentration(MIC), A. niger A. 16404 ([4]; 4 to 48 hours) [µg/mL] | Minimal inhibitory concentration(MIC), Cry. neoformans IFM. 40092 ([5]; 4 to 48 hours) [µg/mL] | Minimal inhibitory concentration(MIC), A furnigatus B. 19119 ([6]; 4 to 48 hours) [µg/mL] | Minimal inhibitory concentration(MIC), C. parapsitosis A. 7330 [7] [µg/mL] | Minimal inhibitory concentration(MIC), C. pseudotropicalis K. 11658 [8] [µg/mL] | Minimal inhibitory concentration(MIC), T. glabrata B. 16205 [9] [µg/mL] | Minimal inhibitory concentration(MIC), Cry. neoformans A. 34144 ([10]; 4 to 48 hours) [µg/mL] | Minimal inhibitory concentration(MIC), C. albicans IFO. 1385 [11] [µg/mL] | Minimal inhibitory concentration(MIC), C. krusei K. 11655 (Candida krusei K. 11655) [µg/mL] | Minimal inhibitory concentration(MIC), T. mentagrophytes B. 32663 ([12]; 4 to 48 hours) [µg/mL] | Minimal inhibitory concentration(MIC), C. albicans C1-2 (Candida albicans C1-2) [µg/mL] | Minimal inhibitory concentration(MIC), Cry. neoformans B. 42419 [13] [µg/mL] | SMILES | further results
6.25 | >100 | >100 | >100 | 0.20 | >100 | 3.13 | 1.56 | >100 | 0.78 | 3.13 | 1.56 | 1.56 | >100 | 0.39 | FC(=C(c1cccc(Cl)c1)C(F)(F)F)N1CCN(c2ccc(OCC3COC(Cn4ccnc4)(c4ccc(Cl)cc4Cl)O3)cc2)CC1 (mixture of isomers) [Ex. 133] | 
6.25 | 100 | 100 | >100 | 0.78 | 100 | 12.5 | 6.25 | 50.0 | 3.13 | 25.0 | 12.5 | 6.25 | 100 | 1.56 | Cc1ccc(C=C(F)Oc2ccc(OCC3COC(Cn4ccnc4)(c4ccc(Cl)cc4Cl)O3)cc2)cc1 (mixture of isomers) [Ex. 89] | 
 | >100 | >100 |  |  |  | 3.13 | 3.13 | 100 |  | 0.78 | 1.56 |  | >100 | 0.78 | FC(=C(c1ccc2c(c1)OCO2)C(F)(F)F)N1CCN(c2ccc(OCC3COC(Cn4ccnc4)(c4ccc(F)cc4F)O3)cc2)CC1 (mixture of isomers) [Ex. 145] | Minimal inhibitory concentration(MIC), T. mentagrophytes A. 9129 [1]: 6.25 µg/mL; Minimal inhibitory concentration(MIC), A. niger A. 16404 [4]: 100 µg/mL; Minimal inhibitory concentration(MIC), Cry. neoformans IFM. 40092 [5]: 0.78 µg/mL; Minimal inhibitory concentration(MIC), A furnigatus B. 19119 [6]: 100 µg/mL; Minimal inhibitory concentration(MIC), Cry. neoformans A. 34144 [10]: 3.13 µg/mL; Minimal inhibitory concentration(MIC), T. mentagrophytes B. 32663 [12]: 1.56 µg/mL
6.25 | >100 | 50.0 | >100 | 0.39 | >100 | >100 | >100 | 50.0 | 1.56 | 1.56 | >100 | 3.13 | 25.0 | 1.56 | FC(Oc1ccc(OCC2COC(Cn3cncn3)(c3ccc(Cl)cc3Cl)O2)cc1)=C(c1ccccc1)C(F)(F)F (mixture of isomers) [Ex. 119] | 

Reference: patent publication US6376497B1, “Antifungal azole derivatives having a fluorinated vinyl group and process for preparing same” (Korea Research Institute of Chemical Technology, priority 1999, dated 2002)
